We go through 35 compounds from patent US7691805B2, “Antimicrobial compounds” (Neobiotics AB, priority 2004, dated 2010).

Non-standard residues stand in square brackets, D forms with d. No end group written: not given here. dPhg = N[C@@H](C(=O)O)c1ccccc1; Phg = N[C@H](C(=O)O)c1ccccc1; code Z = not defined here; Orn = NCCC[C@H](N)C(=O)O; Mpa = O=C(O)CCS

Experiment [1] relates to bacteria. In words: Anti-bacterial activity (tables of particularly interesting compounds). Further details: key: + indicates that the compound show effects. In kind it is cell-based.
In experiment [2] the test system is L. monocytogenes. The experiment can be described thus: Agar well diffusion. The conditions noted are these: 40 ul of 1 mg/ml in DMSO per well. Background: Agar diffusion results depend on both activity and mobility in agar.
Experiment [3] concerns E. coli and other Gram-negatives. In words: Agar well diffusion. The conditions noted are these: E. coli and other Gram-negatives; 40 ul of 1 mg/ml in DMSO per well.
The test system of experiment [4] is Streptococcus: group C. In words: Agar well diffusion. The settings on record: 40 ul of 1 mg/ml in DMSO per well.
Experiment [5] relates to α-haemolytic Streptococci. In words: Agar well diffusion. The conditions noted are these: 40 ul of 1 mg/ml in DMSO per well.
Experiment [6] deals with Streptococcus: group A. The experiment can be described thus: Agar well diffusion. The settings on record: 40 ul of 1 mg/ml in DMSO per well.
The subject of experiment [7] is CNS incl. resistant and multiresistant MRSE. The experiment can be described thus: Agar well diffusion. The settings on record: 40 ul of 1 mg/ml in DMSO per well.
Experiment [8] concerns Streptococcus: group G. The experiment can be described thus: Agar well diffusion. The conditions noted are these: 40 ul of 1 mg/ml in DMSO per well.
The test system of experiment [9] is Streptococcus: group B. The experiment can be described thus: Agar well diffusion. The conditions noted are these: 40 ul of 1 mg/ml in DMSO per well.
Experiment [10] concerns S. pneumoniae. The experiment can be described thus: Agar well diffusion. The settings on record: 40 ul of 1 mg/ml in DMSO per well.
The subject of experiment [11] is Staphylococci incl. multiresistant MRSA. In words: Agar well diffusion. The conditions noted are these: 40 ul of 1 mg/ml in DMSO per well.
Experiment [12] deals with MRSA. In words: Growth inhibition of clinical isolates. The conditions noted are these: approximately 100 strains of MRSA, several with additional resistance markers.
Experiment [13] concerns virus. The experiment can be described thus: Anti-viral activity (tables of particularly interesting compounds). In kind it is cell-based. The settings on record: compounds listed by R4 or R1 residue. Further details: key: + indicates that the compound show effects.
For experiment [14], the system named is HSV-1 F (Herpes Simplex Virus). In words: Antiviral inhibition analysis and plaque counting test in GMK AH 1 cells. The conditions noted are these: 0.4 mM in 1% DMSO; analysed in the same way as Cystapep 1. The format is cell-based.
The subject of experiment [15] is poliovirus type 1. The format is cell-based. The conditions noted are these: 0.4 mM in 1% DMSO; analysed in the same way as Cystapep 1.
[16] abbreviates: peptide analogues and cyclic compounds.
Setting [17] is: compounds listed by R4 or R1 residue.

As for “cyclo(Phe-Arg-Leu-Val-Phe-Arg-Leu-Val) (FRLVFRLV; cyclic; printed: Phe-Arg-Leu-Val-Phe-Arg-Leu-Val)”, the “Activity Anti-bacterial” value in [1] (setting [16]) is on record as “+”.
For `CC(=O)NC(Cc1ccccc1)C(=O)NCC(NC(=O)C(CC(C)C)NC(=O)C(CCCNC(=N)N)NC(=O)OCc1ccccc1)C(C)C` (centres unmarked) [(AcPhe^5)Cp1], the antibacterial effect result in experiment [2] is “+”; in experiment [3] it was “−”; in experiment [4] it was “+”; in experiment [5], “−”; in experiment [6], “+”; in experiment [7], “+”. In addition, the antibacterial effect result in experiment [8], in [9], in experiment [10] and in [11] was “+” each time. For the same compound, the “growth inhibition of MRSA strains” value in experiment [12] is reported as “strongly inhibited in their growth”.
Take `CC(=O)N[C@@H](Cc1ccccc1)C(=O)NCC(NC(=O)C(CC(C)C)NC(=O)C(CCCNC(=N)N)NC(=O)OCc1ccccc1)C(C)C` (stereo partly drawn) [Acetyl-L-phenylalanoyl]: in [1] (setting [17]), the “Activity Anti-bacterial” value is “+”. In addition, in experiment [13], the “Activity Anti-viral” value is given as “+”.
For the compound “cyclo(D-Tyr-Arg-Leu-Val-D-Tyr-Arg-Leu-Val) (chain 1 [dY]RLV; chain 2 [dY]RLV; also: two chains joined into one cyclic octapeptide, head-to-tail to a chain's N/C-terminus)”, in experiment [1] (setting [16]), the “Activity Anti-bacterial” value is on record as “+”.
For the compound `CC(C)CC(CNC(=O)/C=C/c1ccccc1)NC(=O)C(CC(C)C)NC(=O)C(CCCNC(=N)N)NC(=O)OCc1ccccc1` (centres unmarked) [(Leu^4)Cp1], the antibacterial effect entry in experiment [3] is listed as “−”; in experiment [4] it was “+”; in experiment [5], “−”; in experiment [6], “+”; in [7], “+”; in [8] it was “+”. Further, the antibacterial effect result in [9], in experiment [10] and in experiment [11] was “+” in each case. The “effect against HSV-1” value in experiment [14] is “found to have effect”. Besides, the effect against polio result in [15] is recorded as “found to have effect”. The “growth inhibition of MRSA strains” value in experiment [12] was “strongly inhibited in their growth”.
With cyclo([dPhg]RLV[dPhg]RLV), the “Activity Anti-bacterial” value in experiment [1] (setting [16]) was “+”.
`CC(=O)NC(CCCNC(=N)N)C(=O)NC(CC(C)C)C(=O)NC(CNC(=O)/C=C/c1ccccc1)C(C)C` (centres unmarked) [Acetyl]: the “Activity Anti-bacterial” value in experiment [1] (setting [17]) is recorded as “+”.
Still for that read-out and setting: the value for `CC(C)CC(NC(=O)C(CCCNC(=N)N)NC(=O)OCc1ccccc1)C(=O)NC(CNC(=O)C#Cc1ccccc1)C(C)C` (centres unmarked) [Phenylpropiolyl] was “+”.
Regarding `CC(C)C(CNC(=O)/C=C/c1ccccc1)NC(=O)CNC(=O)C(CCCNC(=N)N)NC(=O)OCc1ccccc1` (centres unmarked) [(Gly^3)Cp1], the antibacterial effect result in experiment [4] was “+”; in experiment [5], “−”; in experiment [7], “+”; in experiment [9], “+”; in [11], “+”. Further, the “growth inhibition of MRSA strains” value in experiment [12] was “strongly inhibited in their growth”.
On to `CC(C)CC(NC(=O)C(CCCNC(=N)N)NC(=O)Cc1ccccc1)C(=O)NC(CNC(=O)/C=C/c1ccccc1)C(C)C` (centres unmarked) [Phenylacetyl], for which the “Activity Anti-bacterial” value in experiment [1] (setting [17]) was “+”.
On the same count and under the same terms, the value for `CC(C)CC(NC(=O)C(CCCNC(=N)N)NC(=O)OCc1ccccc1)C(=O)NC(CNC(=O)[C@@H](O)Cc1ccccc1)C(C)C` (stereo partly drawn) [Compound L-2-hydroxy-3-phenylpropionyl] was “+”; that for `CC(C)CC(NC(=O)C(CCCNC(=N)N)NC(=O)CCc1ccccc1)C(=O)NC(CNC(=O)/C=C/c1ccccc1)C(C)C` (centres unmarked) [Compound 3-phenylpropionyl] was “+”; that for `CC(C)CC(NC(=O)C(CCCNC(=N)N)NC(=O)OCc1ccccc1)C(=O)NC(CNC(=O)Cc1ccccc1)C(C)C` (centres unmarked) [n = 1] was “+”.
Still for that read-out and setting: the same measure for `CC(C)CC(NC(=O)C(CCCNC(=N)N)NC(=O)OCc1ccccc1)C(=O)NC(CNC(=O)[C@H](O)Cc1ccccc1)C(C)C` (stereo partly drawn) [Compound D-2-hydroxy-3-phenylpropionyl]: “+”.
For the compound Z-Arg-Leu-Val-cinnamoylamide, the “Activity Anti-bacterial” value in experiment [1] (setting [16]) was “+”.
Still for that read-out and setting: the value for “Mpa-Phe-Arg-Leu-Val-Phe-Cys-NH2 ([Mpa]FRLVFC-NH2; cysteine pairing not given here) [footnote: Mpa-Phe indicates 3-phenylpropionyl]” was “+”; that for “Z-Arg-Leu-Val-Phe-NH2 ({code Z}-RLVF-NH2; reading uncertain; also: printed as Z-Arg-Leu-Val-Phe-NH2)” was “+”; that for cyclo(FRLVF[Orn]LV) was “+”.
Regarding `CC(C)CC(NC(=O)C(CCCNC(=N)N)NC(=O)OCc1ccccc1)C(=O)NC(CNC(=O)C=CC=Cc1ccccc1)C(C)C` (centres unmarked) [5-phenylpenta-2,4-dienoyl], the “Activity Anti-bacterial” value in [1] (setting [17]) was “+”.
Consider cyclo([Phg]RLV[Phg]RLV), for which the “Activity Anti-bacterial” value in [1] (setting [16]) is “+”.
Turning to `CC(C)CC(NC(=O)C(CCCNC(=N)N)NC(=O)OCc1ccccc1)C(=O)NC(CNC(=O)/C=C/Cc1ccccc1)C(C)C` (stereo not drawn) [trans-3-benzylacroyl], the “Activity Anti-bacterial” value in experiment [1] (setting [17]) is recorded as “+”.
The same measure, in the same setting: the same measure for `CC(C)CC(NC(=O)C(CCCNC(=N)N)NC(=O)OCc1ccccc1)C(=O)NC(CNC(=O)CCc1ccccc1)C(C)C` (centres unmarked) [n = 2]: “+”.
The same measure, in the same setting: the same measure for `CC(C)CC(NC(=O)C(CCCNC(=N)N)NC(=O)OCc1ccccc1)C(=O)NC(CNC(=O)/C=C/c1ccccc1)C(C)C` (centres unmarked) [Benzyloxtcarbonyl]: “+”.
As to “cyclo(Tyr-Arg-Leu-Val-Tyr-Arg-Leu-Val) (YRLVYRLV; cyclic; printed: Tyr-Arg-Leu-Val-Tyr-Arg-Leu-Val)”, in [1] (setting [16]), the “Activity Anti-bacterial” value is listed as “+”.
With `CC(C)CC(NC(=O)C(CCCNC(=N)N)NC(=O)OCc1ccccc1)C(=O)NC(CNC(=O)[C@@H](Br)Cc1ccccc1)C(C)C` (stereo partly drawn) [Compound L-2-bromo-3-phenylpropionyl], the “Activity Anti-bacterial” value in experiment [1] (setting [17]) is on record as “+”.
On the same count and under the same terms, the value for `C=C(C(=O)NCC(NC(=O)C(CC(C)C)NC(=O)C(CCCNC(=N)N)NC(=O)OCc1ccccc1)C(C)C)c1ccncc1` (centres unmarked) [2-(4-pyridyl)acroyl] was “+”.
In the case of `CC(C)CC(NC(=O)C(CCCNC(=N)N)NC(=O)OCc1ccccc1)C(=O)NC(CNC(=O)/C=C/c1ccccc1)C(C)C` (stereo not drawn) [trans-cinnamoyl], in experiment [13], the “Activity Anti-viral” value was “+”.
As for `CC(C)CC(NC(=O)C(CCCNC(=N)N)NC(=O)CCCc1ccccc1)C(=O)NC(CNC(=O)/C=C/c1ccccc1)C(C)C` (centres unmarked) [Compound 4-phenylbutyryl], in experiment [1] (setting [17]), the “Activity Anti-bacterial” value is “+”.
cyclo(F[Orn]LVF[Orn]LV): the “Activity Anti-bacterial” value in experiment [1] (setting [16]) is reported as “+”.
`CC(C)CC(NC(=O)C(CCCNC(=N)N)NC(=O)OCc1ccccc1)C(=O)NC(CNC(=O)/C=C/S(=O)(=O)Cc1ccccc1)C(C)C` (stereo not drawn) [trans-3-benzylsulphonylacroyl]: in [1] (setting [17]), the “Activity Anti-bacterial” value was “+”.
The same measure, in the same setting: the value for `CC(C)CC(NC(=O)C(CCCNC(=N)N)NC(=O)OCc1ccccc1)C(=O)NC(CNC(=O)CCl)C(C)C` (centres unmarked) [Chloroacetyl] was “+”.
Consider `CC(C)CC(NC(=O)C(CCCNC(=N)N)NC(=O)OCc1ccccc1)C(=O)NC(CNC(=O)/C=C/c1ccccc1)Cc1ccccc1` (centres unmarked) [(Phe^4)Cp1], for which the antibacterial effect result in experiment [3] was “−”; in experiment [4] it was “+”; in [5], “−”; in experiment [6], “+”; in experiment [7], “+”; in [8] it was “+”. Besides, the antibacterial effect result in [9], in [10] and in [11] was “+” in each case. Further, the “effect against HSV-1” value in experiment [14] is “found to have effect”. Moreover, the effect against polio result in [15] is “found to have effect”. Also, the “growth inhibition of MRSA strains” value in experiment [12] is reported as “strongly inhibited in their growth”.
Regarding `CC(=O)N[C@H](Cc1ccccc1)C(=O)NCC(NC(=O)C(CC(C)C)NC(=O)C(CCCNC(=N)N)NC(=O)OCc1ccccc1)C(C)C` (stereo partly drawn) [Acetyl-D-phenylalanoyl], the “Activity Anti-bacterial” value in experiment [1] (setting [17]) is “+”. Also, the “Activity Anti-viral” value in experiment [13] was “+”.
On to `CC(C)CC(NC(=O)C(CCCNC(=N)N)NC(=O)OCc1ccccc1)C(=O)NC(CNC(=O)C=Cc1ccc(-c2ccccc2)cc1)C(C)C` (centres unmarked) [Compound 4-phenylcinnamoyl], for which, in experiment [1] (setting [17]), the “Activity Anti-bacterial” value was “+”.
For `CC(C)CC(NC(=O)C(CCCNC(=N)N)NC(=O)OCc1ccccc1)C(=O)NC(CNC(=O)[C@H](Br)Cc1ccccc1)C(C)C` (stereo partly drawn) [Compound D-2-bromo-3-phenylpropionyl], in experiment [1] (setting [17]), the “Activity Anti-bacterial” value is “+”.
